What was measured:
PC-3 = assay: 6FGA uptake in PC-3 cells, with and without transporter inhibitors or sodium; format: cell-based, human; settings: PC3 cell line
Experimental: See FIG. 2A-D. Its transport properties were evaluated in two human metastatic cancer cell lines: triple negative breast cancer MDA-MB-231 and human prostate cancer (PC-3). […] See also FIG. 5A, FIG. 5B, and FIG. 6.
The assays are performed from a modified protocol as we have done previously, and from flow cytometry formats (Zou ry al. (2005) J Biochem Biophys Methods 64:207-15; Landau et al. (2007) American journal of physiology Endocrinology and metabolism 293:E237-45). In brief, cells are grown to confluence using recommended growth media in 96-well plates. […] The cells are detached with trypsin and resuspended in PBS. The cells are analysed using flow cytometry with the Cy5.5 filter set (excitation 685 nm, exmission 710 nm) gated for 250,000 counts.

[1] = system: metastatic prostate cancer; settings: men with metastatic prostate cancer, phase III; cited from earlier work
SGLTs and GLUTs = settings: prior work; cited from earlier work
[2] = rat, in vivo; cited from earlier work

With C=C1[C@@H](C)[C@H]2[C@H](Cc3ccccc3)NC(=O)[C@]23OC(=O)/C=C/[C@H](O)CCC[C@@H](C)C/C=C/[C@H]3[C@@H]1O [cytochalasin B] the “effect of inhibitor on 6FGA uptake” value (PC-3) was “not blocked”.

In the case of [Cl][223Ra][Cl] [Xofigo, ^223RaCl2], the adverse events [1] is listed as “low rates of myelosuppression and few adverse events” and the overall survival [1] is listed as “improve overall survival”.

For O=C(CCc1ccc(O)cc1)c1c(O)cc(O)cc1O[C@@H]1O[C@H](CO)[C@@H](O)[C@H](O)[C@H]1O [phlorizin], the “effect of inhibitor on 6FGA uptake” value (PC-3) was “blocked”.

For OC[C@H]1OC(O)[C@H]([18F])[C@@H](O)[C@@H]1O (stereo partly drawn) [[^18F]FDG, ^18F-labeled 2-fluoro-2-deoxy-D-glucose], the “transport by SGLTs / GLUTs” value (SGLTs and GLUTs) is listed as “poorly transported by SGLTs”.

For O=C[C@H](O)[C@@H](O)[C@H](O)[C@H](O)C[18F] [[18F]6FDG, 18F-labelled 6-fluoro-6-deoxy-D-glucose], the “activity in the bladder” value [2] is listed as “no activity was evident in the bladder”, the renal handling [2] is listed as “reabsorbed in proximal tubules of kidneys” and the “transport by SGLTs / GLUTs” value (SGLTs and GLUTs) is listed as “transported by SGLTs and GLUTs”.

From patent publication US20210101905A1, “Development of Imaging and Therapeutic Glucose Analogues for Sodium Dependent Glucose Transporters” (Llnited States Government as represented by the Department …, priority 2019, published 2021)
